The source of these data is ChEMBL document CHEMBL1123144, “Studies on 4(1H)-quinazolinones. 5. Synthesis and antiinflammatory activity of 4(1H)-quinazolinone derivatives” (J Med Chem, 1985).

The test system of data set [1] is Rattus norvegicus. Put plainly: Analgesic activity by oral administration route. It is filed as functional.
The subject of data set [2] is Rattus norvegicus. The data set is described as follows: Anti-inflammatory activity following oral administration. In kind it is functional.
Data set [3] has as its system Rattus norvegicus. The data set is described as follows: Percent inhibition against carrageenan-induced rat paw edema at 50 mg/kg dose administered perorally; 41-50%. Conditions: route oral. It is filed as functional. On the technique in general: In the carrageenan paw model, swelling and tenderness develop within hours.
For data set [4], the system named is Rattus norvegicus. Put plainly: Percent inhibition against carrageenan-induced rat paw edema at 50 mg/kg dose administered perorally; 0-10%. The settings on record: route oral. In kind it is functional.
Data set [5] has as its system Rattus norvegicus. The data set is described as follows: Percent inhibition against carrageenan-induced rat paw edema at 50 mg/kg dose administered perorally; 21-30%. It is filed as functional. Conditions: route oral.
In data set [6] the test system is Rattus norvegicus. Put plainly: Percent inhibition against carrageenan-induced rat paw edema at 50 mg/kg dose administered perorally; 11-20%. Conditions: route oral. In kind it is functional.
Data set [7] concerns Rattus norvegicus. The data set is described as follows: Percent inhibition against carrageenan-induced rat paw edema at 50 mg/kg dose administered perorally; 31-40%. In kind it is functional. The settings on record: route oral.
The subject of data set [8] is Rattus norvegicus. The data set is described as follows: Analgesic activity following oral administration at a dose 30 mg/kg. In kind it is functional.
In data set [9] the test system is Mus musculus. The data set is described as follows: Number of mice bearing ulcer at dose 60 mg/kg out of 5 mices tested. In kind it is functional.
The subject of data set [10] is Mus musculus. Put plainly: Ulcer index by number of mice bearing ulcer at dose 60 mg/kg out of 5 mice tested. In kind it is functional.
Data set [11] relates to Mus musculus. The data set is described as follows: Toxicity by number of mice dead at dose 500 mg/kg out of 5 mice tested by oral administration route; Value represented as 1/5. It is filed as organism-based. Also noted: dose 500 mg/kg, route oral. The settings on record: in vivo.
The test system of data set [12] is Rattus norvegicus. Put plainly: Percent inhibition against carrageenan-induced rat paw edema at 50 mg/kg dose administered perorally. It is filed as functional. Conditions: route oral.
Data set [13] concerns Mus musculus. Put plainly: Number of mice bearing ulcer at dose 45 mg/kg out of 5 mices tested. In kind it is functional.
Data set [14] deals with Mus musculus. The data set is described as follows: Ulcer index by number of mice bearing ulcer at dose 45 mg/kg out of 5 mice tested. In kind it is functional.
Data set [15] has as its system Mus musculus. Put plainly: Toxicity by number of mice dead at dose 500 mg/kg out of 5 mice tested by oral administration route; Value represented as 5/5. Also noted: dose 500 mg/kg, route oral. Conditions: in vivo. In kind it is organism-based.

The term inhibition in vivo denotes how much of the control response was suppressed. Consider `CC(C)c1nc(=O)c2ccccc2n1-c1ccc(F)cc1`, for which the results for the ED30 with Rattus norvegicus [1] and in the data set with Rattus norvegicus [2] were 76 mg/kg and 30 mg/kg, respectively. The compound further displayed an inhibition in vivo at 50 mg/kg in the data set on Rattus norvegicus [3] of 50%.

In turn, `CC(C)n1c(-c2ccccc2)nc(=O)c2ccccc21` had an inhibition in vivo at 50 mg/kg in the data set on Rattus norvegicus [3] of 50%.

In the data set on Rattus norvegicus [4], `CC(C)n1c(-c2ccccc2Br)nc(=O)c2ccccc21` returned an inhibition in vivo at 50 mg/kg of 10%.

In turn, `Cc1ccc2c(=O)nc(C(C)C)n(-c3ccccc3)c2c1` returned an inhibition in vivo at 50 mg/kg in the data set with Rattus norvegicus [5] of 30%.

Compound `CC(C)n1c(-c2ccccc2F)nc(=O)c2cc(Cl)ccc21` yielded an inhibition in vivo at 50 mg/kg with Rattus norvegicus [6] of 20%.

For `COc1ccccc1-c1nc(=O)c2ccccc2n1C(C)C`, the inhibition in vivo at 50 mg/kg in the data set on Rattus norvegicus [4] came out at 10%.

Take `O=c1nc(C2CCC2)n(-c2ccc([N+](=O)[O-])cc2)c2ccccc12`: in the data set with Rattus norvegicus [4], the inhibition in vivo at 50 mg/kg is 10%.

`CC(C)n1c(-c2ccc(Cl)c(Cl)c2)nc(=O)c2ccccc21` yielded an inhibition in vivo at 50 mg/kg with Rattus norvegicus [3] of 50%.

Consider `CC(C)c1nc(=O)n(-c2ccccc2)c2ccccc12`, for which the inhibition in vivo at 50 mg/kg in the data set on Rattus norvegicus [4] came to 10%.

As for `O=c1nc(C2CCCCCC2)n(-c2ccccc2)c2ccccc12`, the inhibition in vivo at 50 mg/kg in the data set with Rattus norvegicus [4] amounted to 10%.

As to `O=c1nc(C2CC2)n(-c2cccc(C(F)(F)F)c2)c2ccccc12`, at 50 mg/kg the inhibition in vivo with Rattus norvegicus [4] was 10%.

In the case of `CC(C)c1nc(=O)c2ccc(N)cc2n1-c1ccccc1`, at 50 mg/kg the inhibition in vivo in the data set with Rattus norvegicus [6] was 20%.

In the case of `COc1ccc2c(c1)c(=O)nc(-c1ccccc1F)n2C(C)C`, the inhibition in vivo at 50 mg/kg in the data set with Rattus norvegicus [5] amounted to 30%.

As for `CC(C)n1c(-c2ccccc2)nc(=O)c2cc(Cl)ccc21`, at 50 mg/kg the inhibition in vivo in the data set on Rattus norvegicus [3] was 50%.

On to `CC(C)n1c(-c2ccccc2F)nc(=O)c2ccc(Cl)cc21`, for which testing at 50 mg/kg with Rattus norvegicus [7] gave an inhibition in vivo of 40%.

Take `CC(C)c1nc(=O)c2ccccc2n1-c1ccccc1`: the figures for the ED30 with Rattus norvegicus [8] and in the data set with Rattus norvegicus [2] were 70 mg/kg and 30 mg/kg, respectively. Besides, the inhibition in vivo at 50 mg/kg in the data set on Rattus norvegicus [7] worked out at 40%.

Compound `CC(C)c1nc(=O)c2ccccc2n1-c1ccccc1Cl` showed an inhibition in vivo at 50 mg/kg with Rattus norvegicus [6] of 20%.

Regarding `CN(C)c1nc(=O)c2ccccc2n1-c1ccccc1`, in the data set on Rattus norvegicus [4], the inhibition in vivo at 50 mg/kg worked out at 10%.

For the compound `CC(C)n1c(-c2ccc(Cl)cc2)nc(=O)c2ccc(Cl)cc21`, testing at 50 mg/kg in the data set on Rattus norvegicus [5] gave an inhibition in vivo of 30%.

For `CC(C)Cc1nc(=O)c2ccccc2n1-c1ccccc1`, the inhibition in vivo at 50 mg/kg in the data set with Rattus norvegicus [5] amounted to 30%.

For the compound `CC(C)n1c(-c2ccccc2)nc2ccccc2c1=O`, the inhibition in vivo at 50 mg/kg in the data set on Rattus norvegicus [5] is 30%.

Compound `CC(C)c1nc(=O)c2ccc([N+](=O)[O-])cc2n1-c1ccccc1` gave an inhibition in vivo at 50 mg/kg in the data set with Rattus norvegicus [4] of 10%.

In turn, `CC(C)c1nc(=O)c2ccccc2n1-c1ccccc1C(N)=O` displayed an inhibition in vivo at 50 mg/kg in the data set with Rattus norvegicus [4] of 10%.

Consider `Cc1ccc2c(c1)c(=O)nc(C(C)C)n2-c1ccccc1`, for which 50 mg/kg produced 30% inhibition in vivo in the data set on Rattus norvegicus [5].

In the case of `CC(C)n1c(-c2ccccc2F)nc(=O)c2ccccc21`, in the data set on Mus musculus [9], the No. of mice was determined as 1. Besides, the “Ulcer Index” value in the data set with Mus musculus [10] was found to be 0.1. This compound yielded a Toxicity with Mus musculus [11] of 1. Besides, the ED30 in the data set with Rattus norvegicus [1] came out at 65 mg/kg; in the data set with Rattus norvegicus [2] it was 20 mg/kg. Besides, the inhibition in vivo at 50 mg/kg in the data set on Rattus norvegicus [12] was at least 51%.

Compound `O=c1nc(C2CC2)n(-c2ccc([N+](=O)[O-])cc2)c2ccccc12` yielded an inhibition in vivo at 50 mg/kg in the data set on Rattus norvegicus [4] of 10%.

Compound `O=C(O)CCc1nc(=O)c2ccccc2n1-c1ccccc1` registered an inhibition in vivo at 50 mg/kg in the data set on Rattus norvegicus [4] of 10%.

As for `Cc1nc(=O)c2ccccc2n1-c1cccc(C(F)(F)F)c1`, the inhibition in vivo at 50 mg/kg with Rattus norvegicus [4] is 10%.

In the data set with Rattus norvegicus [6], `CC(C)c1nc(=O)c2ccccc2n1-c1ccc(CC(=O)O)cc1` gave an inhibition in vivo at 50 mg/kg of 20%.

In the data set with Mus musculus [13], `CC(C)n1c(-c2ccc(Cl)cc2)nc(=O)c2ccccc21` yielded a No. of mice of 0. Moreover, the “Ulcer Index” value in the data set with Mus musculus [14] is recorded as 0. Also, the Toxicity with Mus musculus [15] came out at 5. Besides, the ED30 in the data set with Rattus norvegicus [1] is 44 mg/kg; in the data set with Rattus norvegicus [2] it was 15 mg/kg. This compound also displayed an inhibition in vivo at 50 mg/kg with Rattus norvegicus [3] of 50%.

Consider `CC(C)n1c(-c2ccc(F)cc2)nc(=O)c2ccc(Cl)cc21`, for which the inhibition in vivo at 50 mg/kg in the data set on Rattus norvegicus [5] amounted to 30%.

`COc1cccc2c1c(=O)nc(-c1ccccc1)n2C(C)C` gave an inhibition in vivo at 50 mg/kg in the data set with Rattus norvegicus [6] of 20%.

The compound `COC(=O)CCc1nc(=O)c2ccccc2n1-c1ccccc1` had an inhibition in vivo at 50 mg/kg with Rattus norvegicus [4] of 10%.

Consider `CC(C)c1nc(=O)c2ccccc2n1-c1ccc(N)cc1`, for which the inhibition in vivo at 50 mg/kg in the data set on Rattus norvegicus [5] came out at 30%.

In the data set on Rattus norvegicus [5], `CC(=O)c1ccc(-n2c(C(C)C)nc(=O)c3ccccc32)cc1` yielded an inhibition in vivo at 50 mg/kg of 30%.

In turn, `O=c1nc(C2CC2)n(-c2ccc(Cl)cc2)c2ccccc12` came in with an inhibition in vivo at 50 mg/kg with Rattus norvegicus [4] of 10%.

`CC(C)n1c(-c2cccc(Cl)c2)nc(=O)c2ccccc21` displayed an inhibition in vivo at 50 mg/kg in the data set with Rattus norvegicus [3] of 50%.

Consider `CC(C)c1nc(=O)c2ccccc2n1-c1cccc(C(F)(F)F)c1`, for which, in the data set with Rattus norvegicus [5], the inhibition in vivo at 50 mg/kg was 30%.

The compound `CCN(CC)Cc1nc(=O)c2ccccc2n1-c1cccc(C(F)(F)F)c1` registered an inhibition in vivo at 50 mg/kg in the data set with Rattus norvegicus [5] of 30%.
